How the values were obtained:
[1] = biological target: T1, HMG--CoA reductase (Rattus norvegicus, UniProt P51639); test: Inhibition of HMG-CoA reductase (microsomal enzyme from rat liver, [14C] HMG-CoA reduction to mevalonolactone); format: biochemical; conditions: rat liver microsomal fraction; compound tested as the dihydroxy sodium carboxylate, 10^-3 to 10^-6 M; 20 minute incubation at 37° C.
T1 construct: the microsomal fraction is isolated by differential ultracentrifugation to obtain HMG--CoA reductase enzyme; from tissue; host or cells: rat liver, microsomal fraction
T1 sequence (P51639 1-887): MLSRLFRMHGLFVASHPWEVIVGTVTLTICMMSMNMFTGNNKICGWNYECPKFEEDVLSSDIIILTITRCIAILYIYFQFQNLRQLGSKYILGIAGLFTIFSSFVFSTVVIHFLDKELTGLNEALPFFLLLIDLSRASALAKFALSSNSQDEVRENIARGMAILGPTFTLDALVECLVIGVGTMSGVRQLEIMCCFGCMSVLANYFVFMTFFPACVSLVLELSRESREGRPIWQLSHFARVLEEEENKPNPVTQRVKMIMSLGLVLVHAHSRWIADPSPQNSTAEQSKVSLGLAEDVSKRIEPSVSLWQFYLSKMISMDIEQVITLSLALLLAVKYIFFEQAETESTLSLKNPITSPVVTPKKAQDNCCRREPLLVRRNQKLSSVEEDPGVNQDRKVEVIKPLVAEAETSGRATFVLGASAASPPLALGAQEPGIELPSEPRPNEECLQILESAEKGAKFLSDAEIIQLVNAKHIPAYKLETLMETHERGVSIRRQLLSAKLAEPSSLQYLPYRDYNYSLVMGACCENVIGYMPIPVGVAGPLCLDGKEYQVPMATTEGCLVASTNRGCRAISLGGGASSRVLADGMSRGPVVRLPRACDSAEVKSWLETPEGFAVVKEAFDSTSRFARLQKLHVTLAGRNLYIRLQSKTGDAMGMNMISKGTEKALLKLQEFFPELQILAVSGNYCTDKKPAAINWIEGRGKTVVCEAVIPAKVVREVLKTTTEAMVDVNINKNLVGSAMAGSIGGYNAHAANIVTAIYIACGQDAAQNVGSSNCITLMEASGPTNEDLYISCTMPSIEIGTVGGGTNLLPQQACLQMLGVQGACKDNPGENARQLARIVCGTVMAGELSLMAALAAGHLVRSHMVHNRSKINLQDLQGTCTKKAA
Text: The HMG--CoA reductase inhibitory properties of representative compounds of this invention were established by subjecting the compounds to the following standard experimental test procedure adapted from Rodwell et al., Adv. Lipid Res. 14 1, 1976; Endo et al., FEBS Letters 72 323, 1976; and Tanzawa et al., Biochemia et Biophysica Acta 488 97, 1977.
Rat livers obtained from rats fed on a diet containing 3% cholestyramine and maintained on a reverse lighting regimen for three weeks are homogenized and the microsomal fraction is isolated by differential ultracentrifugation to obtain HMG--CoA reductase enzyme. To a preincubated (five minutes at 37° C.) solution of the compound being tested (as the dihydroxy sodium carboxylate in amounts from 10^-3 to 10^-6 M) in TEDKS100 pH (Tris®40 mM; EDTA 1 mM; dithiothreitol 5 mM; KCl 70 mM; sucrose 100 mM), 7.5 buffer or DMSO dissolved in an assay medium containing 20 μl of 2.5M KCl; 20 μl NADPH (reduced nicotinamide adenine dinucleotide phosphate) (7.5 mM); and 40 μl of labeled (RS) HMG--CoA (3--^14 C; […]; 200 μM) is added 10 μl of preincubated (five minutes at 37° C.) microsomal fraction to obtain a total volume of 125 μl. After a twenty minute incubation period at 37° C., reaction of the enzyme is terminated by addition of 10 μl of 70% HClO4. The assay tubes are then centrifuged for two minutes in a Beckman microfuge II.
To 100 μl of the supernatant liquid is added 10 μl of non-radioactivemevalonic acid lactone (0.25M in 8 mM H2 SO4). An aliquot of the sample is eluted with 8 mM H2 SO4 through Bio Rad Aminex HPX-87H (HPLC; Hewlett-Packard Model 1084B) at a flow rate of 1 mL/minute. The effluent is fractionated, Hydrofluor® is added and radioactivity of the [^14 C] mevalonolactone produced by reduction of [^14 C] HMG--CoA determined with a scintillation counter.
The percent inhibition of HMG--CoA reductase activity is obtained by comparison with a control assay devoid of the test compound. The inhibitory concentration (IC50) is calculated for the various test compounds.

[2] = test system: biosynthesis of cholesterol; conditions: background art; cited from earlier work

SMILES | IC50 [1] [µM] | inhibition of the biosynthesis of cholesterol (in words) [2]
COC(=O)C[C@@H](O)C[C@H](O)/C=C/c1oc(C)cc1-c1ccc(F)cc1 [Example 1, (3S,5S,E)-7-[5-Methyl-3-(4-Fluorophenyl)-2-Furanyl]-3,5-Dihydroxy-6-Heptenoic Acid Methyl Ester] | 62 | 
CC[C@H](C)C(=O)O[C@H]1CCC=C2C=C[C@H](C)[C@H](CC[C@@H]3C[C@@H](O)CC(=O)O3)[C@H]21 [compactin] |  | inhibited
CCC(C)C(=O)OC1CC(C)C=C2C=CC(C)C(CCC3CC(O)CC(=O)O3)C21 (stereo not drawn) [mevinolin] |  | more effectively

More lines, main results first:

IC50 [1] [µM] | SMILES | inhibition of the biosynthesis of cholesterol (in words) [2]
99 | COC(=O)C[C@@H](O)C[C@H](O)/C=C/c1oc(C)cc1-c1ccccc1 [Example 2, (3S,5S,E)-7-[5-Methyl-3-Phenyl-2-Furanyl]-3,5-Dihydroxy-6-Heptenoic Acid Methyl Ester] | 
56 | COC(=O)C[C@@H](O)C[C@H](O)/C=C/c1occc1-c1ccc(F)cc1 [Example 3, (3S,5S,E)-7-[3-(4-Fluorophenyl)-2-Furanyl]-3,5-Dihydroxy-6-Heptenoic Acid Methyl Ester] | 
100 | COC(=O)C[C@@H](O)C[C@H](O)/C=C/c1ccc(-c2ccc(C(F)(F)F)cc2[N+](=O)[O-])o1 [Example 4, (3S,5S,E)-3,5-Dihydroxy-7-[5-[4-(Trifluoromethyl)-2-Nitrophenyl]-2-Furanyl]-6-Heptenoic Acid Methyl Ester] | 
